pIC50: −log10 of the molar value. Calls of active or inactive are those of the source. No cut-off for these calls is given here.
Columns and labels:
[1] = target: 5-hydroxytryptamine receptor 2A (Homo sapiens) (UniProt P28223); assay: Antagonist activity at 5-HT2AR (unknown origin) in human PSYLI2 cells assessed as decrease in fluorescence at 10 uM pretreated with 5-HT for 10 mins followed by compound addition and measured after 5 mins by PsychLight2 assay; format: functional, cell-based; conditions: PSYLI2 cell, filed as antagonist
[2] = target: 5-hydroxytryptamine receptor 2A (Homo sapiens) (UniProt P28223); assay: Agonist activity at 5-HT2AR (unknown origin) in human PSYLI2 cells assessed as increase in biosensor activation at 10 uM incubated for 5 mins by PsychLight2 assay; format: functional, cell-based; conditions: PSYLI2 cell
[3] = target: Casein kinase I (Homo sapiens) (UniProt Q9HCP0+P78368+P48730+P49674+P48729); assay: Inhibition of CK1 (unknown origin) at 10 uM by DiscoverX KINOMEscan assay; format: protein assay
Cortical neurone [4] = assay: Psychoplastogenic effect in Sprague-Dawley rat cortical neuron assessed as increase in dendritic spine density at 10 uM incubated for 24 hrs by spinogenesis based confocal microscopic analysis; format: functional, cell-based
[5] = target: Cyclin-dependent kinase 7 (Homo sapiens) (UniProt P50613); assay: Inhibition of CDK7 (unknown origin) at 10 uM by DiscoverX KINOMEscan assay
Homo sapiens = species on record: Homo sapiens; assay: Inhibition of CAMK (unknown origin) at 10 uM by DiscoverX KINOMEscan assay
[6] = target: Microtubule-associated protein tau (Rattus norvegicus) (UniProt P19332); assay: Inhibition of okadaic acid-induced Tau hyperphosphorylation Ser202/Thr205 residues in Sprague-Dawley rat cortical neuron at 1 to 50 uM preincubated with compound for 24 hrs followed by okadaic acid addition and measured after 1 hrs by fluorescence based immunohistochemistry analysis; format: cell-based; conditions: dose 1-50 µM
[7] = target: Phosphatidylinositol 4,5-bisphosphate 3-kinase catalytic subunit gamma isoform (Homo sapiens) (UniProt P48736); assay: Inhibition of PIK3CG (unknown origin) at 10 uM by DiscoverX KINOMEscan assay
Cortical neurone [8] = assay: Induction of neurite outgrowth in Wistar rat Primary cortical neurons assessed as increase in neurite length incubated for 72 hrs by imaging analysis; format: functional, cell-based; conditions: dose 0.3-10 µM
Mus musculus = assay: Antipsychotic activity in C57BL/6J mouse assessed as reduction in 5-MeO-DMT-induced head-twitch response at 30 mg/kg, ip pretreated with compound for 10 mins followed by 5-MeO-DMT addition and measured after 20 mins; format: functional, organism-based; conditions: time 30.0 min
[9] = target: Microtubule-associated protein tau (Rattus norvegicus) (UniProt P19332); assay: Inhibition of okadaic acid-induced Tau hyperphosphorylation Ser202/Thr205 residues in Sprague-Dawley rat cortical neuron at 50 uM preincubated with compound for 24 hrs followed by okadaic acid addition and measured after 1 hrs by fluorescence based immunohistochemistry analysis; format: cell-based
[10] = Toxicity in C57BL/6J mouse assessed as effect on locomotion upto 30 mg/kg, ip measured for 10 mins; format: organism-based; conditions: in vivo
[11] = Toxicity in C57BL/6J mouse assessed as induction of head-twitch response upto 30 mg/kg, ip measured for 10 mins; format: organism-based; conditions: in vivo
[12] = target: Dual specificity tyrosine-phosphorylation-regulated kinase 1A (Homo sapiens, UniProt Q13627)
Cortical neurone [13] = assay: Induction of neurite outgrowth in Wistar rat Primary cortical neurons assessed as increase in neurite branching incubated for 72 hrs by imaging analysis; format: functional, cell-based; conditions: dose 0.3-10 µM

Chain of 5-hydroxytryptamine receptor 2A (Homo sapiens) (P28223 whole entry): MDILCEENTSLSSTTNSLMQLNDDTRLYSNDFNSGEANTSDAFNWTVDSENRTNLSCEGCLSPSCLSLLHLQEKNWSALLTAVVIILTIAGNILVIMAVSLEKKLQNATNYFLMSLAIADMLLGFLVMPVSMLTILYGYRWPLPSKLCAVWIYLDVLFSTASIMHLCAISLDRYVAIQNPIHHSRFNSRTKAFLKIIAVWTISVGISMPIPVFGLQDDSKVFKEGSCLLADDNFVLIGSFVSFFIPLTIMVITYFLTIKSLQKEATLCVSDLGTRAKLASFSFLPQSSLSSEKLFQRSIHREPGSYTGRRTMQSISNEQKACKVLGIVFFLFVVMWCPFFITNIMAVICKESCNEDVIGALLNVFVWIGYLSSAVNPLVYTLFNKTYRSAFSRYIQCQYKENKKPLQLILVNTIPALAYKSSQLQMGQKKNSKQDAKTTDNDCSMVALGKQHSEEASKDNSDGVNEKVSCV
Chain of Microtubule-associated protein tau (Rattus norvegicus) (P19332 whole entry, canonical isoform): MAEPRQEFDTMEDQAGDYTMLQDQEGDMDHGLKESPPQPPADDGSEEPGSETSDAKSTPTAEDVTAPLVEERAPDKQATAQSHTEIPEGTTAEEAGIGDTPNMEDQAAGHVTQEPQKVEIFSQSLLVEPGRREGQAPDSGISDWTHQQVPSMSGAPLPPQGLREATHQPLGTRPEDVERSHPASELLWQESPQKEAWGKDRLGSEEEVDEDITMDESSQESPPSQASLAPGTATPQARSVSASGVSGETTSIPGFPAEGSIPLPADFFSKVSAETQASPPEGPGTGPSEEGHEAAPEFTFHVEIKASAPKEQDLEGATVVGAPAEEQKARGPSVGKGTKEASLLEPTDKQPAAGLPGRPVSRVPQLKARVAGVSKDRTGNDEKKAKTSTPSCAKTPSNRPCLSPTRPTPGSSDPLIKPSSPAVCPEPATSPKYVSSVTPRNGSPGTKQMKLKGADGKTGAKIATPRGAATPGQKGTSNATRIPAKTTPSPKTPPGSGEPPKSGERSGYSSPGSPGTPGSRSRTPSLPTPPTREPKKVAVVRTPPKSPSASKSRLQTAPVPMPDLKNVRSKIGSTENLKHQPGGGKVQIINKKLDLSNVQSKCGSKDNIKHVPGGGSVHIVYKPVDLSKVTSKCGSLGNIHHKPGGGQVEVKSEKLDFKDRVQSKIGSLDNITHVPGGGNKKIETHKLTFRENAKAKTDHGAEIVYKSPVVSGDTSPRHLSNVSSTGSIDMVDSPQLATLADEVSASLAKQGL
Chain of Phosphatidylinositol 4,5-bisphosphate 3-kinase catalytic subunit gamma isoform (Homo sapiens) (P48736 whole entry, looked up, canonical isoform): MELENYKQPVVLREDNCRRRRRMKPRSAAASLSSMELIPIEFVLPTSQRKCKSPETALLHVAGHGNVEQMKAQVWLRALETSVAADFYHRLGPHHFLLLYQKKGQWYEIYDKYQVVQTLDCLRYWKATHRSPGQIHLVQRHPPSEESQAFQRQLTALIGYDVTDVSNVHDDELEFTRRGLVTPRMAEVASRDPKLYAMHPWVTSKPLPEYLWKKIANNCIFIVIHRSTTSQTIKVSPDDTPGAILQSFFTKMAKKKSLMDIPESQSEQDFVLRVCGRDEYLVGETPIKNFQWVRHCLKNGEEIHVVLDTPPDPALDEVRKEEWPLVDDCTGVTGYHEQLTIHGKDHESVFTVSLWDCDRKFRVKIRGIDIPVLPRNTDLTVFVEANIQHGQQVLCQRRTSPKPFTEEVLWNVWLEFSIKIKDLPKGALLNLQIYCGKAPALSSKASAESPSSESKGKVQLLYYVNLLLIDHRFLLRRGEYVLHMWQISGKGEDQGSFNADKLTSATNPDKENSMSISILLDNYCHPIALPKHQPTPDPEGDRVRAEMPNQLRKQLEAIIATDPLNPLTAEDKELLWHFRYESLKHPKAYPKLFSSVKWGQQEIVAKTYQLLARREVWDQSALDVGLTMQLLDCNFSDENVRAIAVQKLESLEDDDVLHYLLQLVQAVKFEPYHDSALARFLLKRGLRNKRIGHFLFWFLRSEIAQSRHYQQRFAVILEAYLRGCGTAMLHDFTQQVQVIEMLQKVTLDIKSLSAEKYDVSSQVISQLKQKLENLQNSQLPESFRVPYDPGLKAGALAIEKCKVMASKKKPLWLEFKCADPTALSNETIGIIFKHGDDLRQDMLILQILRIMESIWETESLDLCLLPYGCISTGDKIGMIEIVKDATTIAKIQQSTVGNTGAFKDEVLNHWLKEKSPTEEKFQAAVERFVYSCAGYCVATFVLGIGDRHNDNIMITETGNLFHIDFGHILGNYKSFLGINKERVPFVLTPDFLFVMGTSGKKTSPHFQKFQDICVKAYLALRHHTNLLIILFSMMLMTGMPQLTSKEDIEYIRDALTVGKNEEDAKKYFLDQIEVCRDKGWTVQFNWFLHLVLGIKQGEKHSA
Chain of Cyclin-dependent kinase 7 (Homo sapiens) (P50613 whole entry): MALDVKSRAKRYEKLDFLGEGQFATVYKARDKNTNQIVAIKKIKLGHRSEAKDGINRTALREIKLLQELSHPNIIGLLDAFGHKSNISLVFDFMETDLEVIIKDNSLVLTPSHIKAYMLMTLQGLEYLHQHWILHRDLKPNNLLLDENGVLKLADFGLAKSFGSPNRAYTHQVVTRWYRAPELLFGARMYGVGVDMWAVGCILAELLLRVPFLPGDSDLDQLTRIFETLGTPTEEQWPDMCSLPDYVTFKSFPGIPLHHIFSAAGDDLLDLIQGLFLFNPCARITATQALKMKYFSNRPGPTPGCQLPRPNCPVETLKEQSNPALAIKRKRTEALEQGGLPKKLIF

Row | Compound | Activity [1] | Activity [2] | Activity (Cortical neurone [4]) | inhibition [6] | pIC50 [12] | other results
1 | CC(=O)/C=C1\Sc2ccccc2N1CCN(C)C | Active | inactive |  |  |  | 
2 | NCCc1c[nH]c2ccc(O)cc12 |  |  |  |  |  | Activity ([2]; filed as agonist): Active
3 | COc1ccc2c(c1)[nH]c1c(C)nccc12 |  |  | inactive | Active |  | inhibition [3]: Active; inhibition [5]: Active; inhibition (Homo sapiens): Active; inhibition [7]: Active
4 | COc1ccc2c3ccnc(C)c3n(CCN(C)C)c2c1.O=C(O)/C=C/C(=O)O |  |  | Active |  | 6.68 | Activity (Cortical neurone [8]): Dose-Dependent Effect; Activity (Mus musculus): Active; inhibition [9]: Active; Activity [10]: Non-Toxic; Activity [11]: Non-Toxic; Activity (Cortical neurone [13]): Dose-Dependent Effect
5 | COc1ccc2c(c1)N(CCN(C)C)/C(=C/C(C)=O)S2 |  |  |  | inactive | 6.25 | Activity (Cortical neurone [8]): Dose-Dependent Effect; Activity (Cortical neurone [13]): Dose-Dependent Effect
6 | Cc1nccc2c3ccccc3n(CCN(C)C)c12 | Active | inactive |  |  | < 5.00 | 
7 | COc1ccc2c(c1)S/C(=C\C(C)=O)N2CCN(C)C | Active | inactive |  |  |  | 
8 | CN(C)CCc1c[nH]c2ccccc12 |  |  | Active | inactive |  | 
9 | COc1ccc2c(c1)c1ccnc(C)c1n2CCN(C)C | Active | inactive |  |  | < 5.00 | 

— ChEMBL document CHEMBL5543160, “Psychoplastogenic DYRK1A Inhibitors with Therapeutic Effects Relevant to Alzheimer's Disease” (J Med Chem, 2024)
